From patent publication US12570655B2, “Cysteine covalent modifiers of AKT1 and uses thereof” (Terremoto Biosciences, Inc., priority 2023, dated 2026)
Read-outs that look alike come from different tables or passages of the source.

Experiments:
Assay type in all cases: cell-based
[1] = tested on: LAPC4 prostate cancer cells; test: Antiproliferative effects in LAPC4 cells (CellTiter Glo); settings: LAPC4 cells (AKT1 E17K allele), read-out: LAPC4 proliferation IC50
Outline: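 Growth inhibition was measured by CellTiter Glo ATP luminescence after 72 h compound exposure of 1,000 seeded cells/well. The cells were AKT1 E17K-expressing LAPC4 prostate cancer cells maintained in IMDM plus 12% FBS. IC50 values came from Hill-equation fits.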

AKT1 E17K = target: T1, AKT1 E17K (Homo sapiens, UniProt P31749, E17K); test: Live cell AKT1 E17K target engagement by NanoBRET competitive probe displacement; settings: HEK293 cells transfected with kinase-NanoLuciferase fusion, 2 h at 37° C.
T1 construct: expressed in transfected cells; host or cells: HEK293
T1 sequence (P31749 whole entry E17K, the tested form may be a part): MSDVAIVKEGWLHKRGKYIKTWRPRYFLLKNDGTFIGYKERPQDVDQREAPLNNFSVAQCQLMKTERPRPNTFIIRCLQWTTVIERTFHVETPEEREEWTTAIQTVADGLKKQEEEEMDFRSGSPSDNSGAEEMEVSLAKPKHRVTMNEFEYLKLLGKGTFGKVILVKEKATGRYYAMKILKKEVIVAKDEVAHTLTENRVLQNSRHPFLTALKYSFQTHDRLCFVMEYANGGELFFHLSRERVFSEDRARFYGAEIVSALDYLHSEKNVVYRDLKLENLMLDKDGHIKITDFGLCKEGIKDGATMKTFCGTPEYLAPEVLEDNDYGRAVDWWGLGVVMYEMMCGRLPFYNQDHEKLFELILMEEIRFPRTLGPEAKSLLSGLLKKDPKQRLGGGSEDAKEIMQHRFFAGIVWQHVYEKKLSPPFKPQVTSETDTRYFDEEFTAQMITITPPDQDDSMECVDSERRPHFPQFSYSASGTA
Outline: (§1)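 IC50 fitted (Hill, log inhibitor vs response) to BRET signal, E600/E460 ratio, measured with extracellular NanoLuc inhibitor present. Intact transfected HEK293 cells bearing NanoLuc-tagged kinase were co-incubated 2 h, 37 °C, with compound dilution series and ~EC50 ATP-competitive fluorescent tracer.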

AKT1 WT = target: T2, AKT1 WT (Homo sapiens, UniProt P31749); test: Live cell AKT1 WT target engagement by NanoBRET competitive probe displacement; settings: HEK293 cells transfected with kinase-NanoLuciferase fusion, 2 h at 37° C.
T2 construct: expressed in transfected cells; host or cells: HEK293
T2 sequence (P31749 whole entry, the tested form may be a part): as the sequence (P31749 whole entry E17K, the tested form may be a part) above, with K17E counted along it
Outline: as §1

AKT2 = target: T3, AKT2 (Homo sapiens, UniProt P31751); test: Live cell AKT2 target engagement by NanoBRET competitive probe displacement; settings: HEK293 cells transfected with kinase-NanoLuciferase fusion, 2 h at 37° C.
T3 construct: expressed in transfected cells; host or cells: HEK293
T3 sequence (P31751 whole entry, the tested form may be a part): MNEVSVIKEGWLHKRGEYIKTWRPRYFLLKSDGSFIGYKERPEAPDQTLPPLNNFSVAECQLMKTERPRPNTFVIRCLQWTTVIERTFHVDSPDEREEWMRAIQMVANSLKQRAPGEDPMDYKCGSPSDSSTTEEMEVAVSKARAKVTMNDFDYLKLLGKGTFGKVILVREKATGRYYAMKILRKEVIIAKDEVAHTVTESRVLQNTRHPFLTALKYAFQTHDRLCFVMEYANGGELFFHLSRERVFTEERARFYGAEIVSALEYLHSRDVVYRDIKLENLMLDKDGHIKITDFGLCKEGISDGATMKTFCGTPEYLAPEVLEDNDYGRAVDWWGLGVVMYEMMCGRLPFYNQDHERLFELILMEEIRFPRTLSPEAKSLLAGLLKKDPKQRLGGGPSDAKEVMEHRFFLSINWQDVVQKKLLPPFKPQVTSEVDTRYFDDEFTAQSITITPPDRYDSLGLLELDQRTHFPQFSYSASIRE
Outline: as §1

Row | Compound | IC50 ([1]; 72 h) [nM] | IC50 (AKT1 E17K) [nM] | IC50 (AKT1 WT) [nM] | IC50 (AKT2) [nM] | IC50 ([1]; Homo sapiens, LAPC4, 72 h) [nM]
1 | C=CC(=O)N1CCC(N[C@@H]2c3ccc(-n4c(-c5cccnc5N)nc5ccc(-n6ccc(OC)n6)nc54)cc3CC2F)CC1 (single isomer, unassigned) [Example 287, 1-(4-(((1R,2*)-5-(2-(2-aminopyridin-3-yl)-5-(3-methoxy-1H-pyrazol-1-yl)-3H-imidazo[4,5-b]pyridin-3-yl)-2-fluoro-2,3-dihydro-1H-inden-1-yl)amino)piperidin-1-yl)prop-2-en-1-one] | 110 | 7.68 | 227 | 41.8 | –
2 | C=CC(=O)N1CCC(N[C@H]2CCc3cc(-n4c(-c5cccnc5N)nc5ccc(-n6cccn6)nc54)ccc32)C(C)(F)C1 (single isomer, unassigned) [Example 307, 1-((3*,4*)-4-(((S)-5-(2-(2-aminopyridin-3-yl)-5-(1H-pyrazol-1-yl)-3H-imidazo[4,5-b]pyridin-3-yl)-2,3-dihydro-1H-inden-1-yl)amino)-3-fluoro-3-methylpiperidin-1-yl)prop-2-en-1-one] | 345 | 12.3 | 294 | 106 | –
3 | C=CC(=O)N1CCC(N[C@H]2CCc3cc(-n4c(-c5cccnc5N)nc5ccc(-n6cccn6)nc54)ccc32)C(C#N)C1 (stereo partly drawn) [Example 157, (3*,4*)-1-acryloyl-4-(((S)-5-(2-(2-aminopyridin-3-yl)-5-(1H-pyrazol-1-yl)-3H-imidazo[4,5-b]pyridin-3-yl)-2,3-dihydro-1H-inden-1-yl)amino)piperidine-3-carbonitrile] | – | 54.5 | 17.2 | 216 | 110
4 | C=CC(=O)N1CCC(N[C@H]2CCc3cc(-n4c(-c5cccnc5N)nc5ccc(-n6cccn6)nc54)ccc32)C(O)C1 (single isomer, unassigned) [Example 142, 1-[(3*,4*)-4-{[(1S)-5-[2-(2-aminopyridin-3-yl)-5-(pyrazol-1-yl)imidazo[4,5-b]pyridin-3-yl]-2,3-dihydro-1H-inden-1-yl]amino}-3-hydroxypiperidin-1-yl]prop-2-en-1-one] | 3460 | > 1000 | > 1000 | > 10000 | –
5 | C=CC(=O)N1CCC(N[C@H]2CCc3cc(-n4c(-c5cccnc5N)nc5ccc(-n6cccn6)nc54)ccc32)C(O)C1 (single isomer, unassigned) [Example 141, 1-[(3*,4*)-4-{[(1S)-5-[2-(2-aminopyridin-3-yl)-5-(pyrazol-1-yl)imidazo[4,5-b]pyridin-3-yl]-2,3-dihydro-1H-inden-1-yl]amino}-3-hydroxypiperidin-1-yl]prop-2-en-1-one] | 1700 | 554 | 148 | 872 | –
6 | C=CC(=O)N1CCC(N[C@H]2CCc3cc(-n4c(-c5cccnc5N)nc5ccc(-c6ncco6)nc54)ccc32)CC1 [Example 109, (S)-1-(4-((5-(2-(2-aminopyridin-3-yl)-5-(oxazol-2-yl)-3H-imidazo[4,5-b]pyridin-3-yl)-2,3-dihydro-1H-inden-1-yl)amino)piperidin-1-yl)prop-2-en-1-one] | – | 124 | 24.9 | 454 | 3160
7 | C=CC(=O)N1CCC(N[C@H]2CCc3cc(-n4c(-c5cccnc5N)nc5ccc(-n6ccc(OC)n6)nc54)ccc32)CC1 [Example 206, 1-(4-{[(1S)-5-[2-(2-aminopyridin-3-yl)-5-(3-methoxypyrazol-1-yl)imidazo[4,5-b]pyridin-3-yl]-2,3-dihydro-1H-inden-1-yl]amino}piperidin-1-yl)prop-2-en-1-one] | – | 7.65 | 80.5 | 24.8 | 62.7
8 | C=CC(=O)N1CCC(N[C@H]2CCc3cc(-n4c(-c5cccnc5N)nc5ccc(-n6cccn6)nc54)ccc32)C(C)C1 (single isomer, unassigned) [Example 100, 1-((3*,4*)-4-(((S)-5-(2-(2-aminopyridin-3-yl)-5-(1H-pyrazol-1-yl)-3H-imidazo[4,5-b]pyridin-3-yl)-2,3-dihydro-1H-inden-1-yl)amino)-3-methylpiperidin-1-yl)prop-2-en-1-one] | 187 | 53.6 | 9.09 | 135 | –
9 | C=C(F)C(=O)NCc1ccccc1C(=O)N[C@H]1CCc2cc(-n3c(-c4cccnc4N)nc4ccc(-n5cccn5)nc43)ccc21 [Example 264, N-[(1S)-5-[2-(2-aminopyridin-3-yl)-5-(pyrazol-1-yl)imidazo[4,5-b]pyridin-3-yl]-2,3-dihydro-1H-inden-1-yl]-2-[(2-fluoroprop-2-enamido)methyl]benzamide] | – | 27.8 | 937 | 171 | 1330
10 | C=CC(=O)N1CCC(N[C@H]2CCc3cc(-n4c(-c5cccnc5N)nc5ccc(-n6nccn6)nc54)ccc32)C[C@H]1C (single isomer, unassigned) [Example 261, 1-[(2R,4*)-4-{[(1S)-5-[2-(2-aminopyridin-3-yl)-5-(1,2,3-triazol-2-yl)imidazo[4,5-b]pyridin-3-yl]-2,3-dihydro-1H-inden-1-yl]amino}-2-methylpiperidin-1-yl]prop-2-en-1-one] | 227 | 43.3 | 555 | 136 | –
11 | C=CC(=O)N1CCC(N[C@H]2CCc3cc(-n4c(-c5cccnc5N)nc5ccc(-n6cccn6)nc54)ccc32)C[C@H]1COC (single isomer, unassigned) [Example 129, 1-[(2S,4*)-4-{[(1S)-5-[2-(2-aminopyridin-3-yl)-5-(pyrazol-1-yl)imidazo[4,5-b]pyridin-3-yl]-2,3-dihydro-1H-inden-1-yl]amino}-2-(methoxymethyl)piperidin-1-yl]prop-2-en-1-one] | > 10000 | > 1000 | 115 | 2720 | –
12 | C=CC(=O)N1CCC(N[C@H]2CCc3cc(-n4c(-c5cccnc5N)nc5ccc(N6CCC(F)CC6)nc54)ccc32)CC1 [Example 238, 1-(4-{[(1S)-5-[2-(2-aminopyridin-3-yl)-5-(4-fluoropiperidin-1-yl)imidazo[4,5-b]pyridin-3-yl]-2,3-dihydro-1H-inden-1-yl]amino}piperidin-1-yl)prop-2-en-1-one] | – | 37.2 | 679 | 666 | 667
13 | C=CC(=O)N1C[C@H]2C[C@@H](C1)C2N[C@H]1CCc2cc(-n3c(-c4cccnc4N)nc4ccc(-n5cccn5)nc43)ccc21 (single isomer, unassigned) [Example 59, 1-((1R,5S,6*)-6-(((S)-5-(2-(2-aminopyridin-3-yl)-5-(1H-pyrazol-1-yl)-3H-imidazo[4,5-b]pyridin-3-yl)-2,3-dihydro-1H-inden-1-yl)amino)-3-azabicyclo[3.1.1]heptan-3-yl)prop-2-en-1-one] | 377 | 242 | 44.8 | 648 | –
14 | C=CC(=O)NC1CC(N[C@H]2CCc3cc(-n4c(-c5cccnc5N)nc5ccc(-n6cccn6)nc54)ccc32)C1 (single isomer, unassigned) [Example 90, N-((1*,3*)-3-(((S)-5-(2-(2-aminopyridin-3-yl)-5-(1H-pyrazol-1-yl)-3H-imidazo[4,5-b]pyridin-3-yl)-2,3-dihydro-1H-inden-1-yl)amino)cyclobutyl)acrylamide] | 351 | 156 | 41.2 | 109 | –
15 | C=CC(=O)N1CCC(N[C@@H]2c3ccc(-n4c(-c5ccccc5F)nc5ccc(-n6cccn6)nc54)cc3CC2F)C[C@H]1C (single isomer, unassigned) [Example 317, 1-((2R,4*)-4-(((1R,2*)-2-fluoro-5-(2-(2-fluorophenyl)-5-(1H-pyrazol-1-yl)-3H-imidazo[4,5-b]pyridin-3-yl)-2,3-dihydro-1H-inden-1-yl)amino)-2-methylpiperidin-1-yl)prop-2-en-1-one] | 464 | 20.3 | 2590 | 68.4 | –
16 | C=CC(=O)N1CCC(N[C@H]2CCc3cc(-n4c(-c5cccnc5N)nc5ccc(-n6cccn6)nc54)ccc32)C[C@@H]1COC (single isomer, unassigned) [Example 165, 1-((2R,4*)-4-(((S)-5-(2-(2-aminopyridin-3-yl)-5-(1H-pyrazol-1-yl)-3H-imidazo[4,5-b]pyridin-3-yl)-2,3-dihydro-1H-inden-1-yl)amino)-2-(methoxymethyl)piperidin-1-yl)prop-2-en-1-one] | 187 | 143 | 39.3 | 163 | –
17 | C=CC(=O)N1CCC(N[C@H]2CCc3cc(-n4c(-c5cccnc5N)nc5ccc(-n6cccn6)nc54)ccc32)c2ccccc21 (single isomer, unassigned) [Example 126, 1-[(4*)-4-{[(1S)-5-[2-(2-aminopyridin-3-yl)-5-(pyrazol-1-yl)imidazo[4,5-b]pyridin-3-yl]-2,3-dihydro-1H-inden-1-yl]amino}-3,4-dihydro-2H-quinolin-1-yl]prop-2-en-1-one] | 5050 | 671 | > 1000 | 8570 | –
18 | C=CC(=O)N1CCC(N[C@H]2CCc3cc(-n4c(-c5cccnc5N)nc5ccc(-c6cnn(C(F)(F)F)c6)nc54)ccc32)CC1 [Example 225, 1-(4-{[(1S)-5-[2-(2-aminopyridin-3-yl)-5-[1-(trifluoromethyl)pyrazol-4-yl]imidazo[4,5-b]pyridin-3-yl]-2,3-dihydro-1H-inden-1-yl]amino}piperidin-1-yl)prop-2-en-1-one] | – | 31.8 | 308 | 239 | 394
